Legend:
[1] = system: male and female subjects who feel a decline in mobility; assay: Joint pain reducing effect questionnaire (0 to 10 scale, pain felt in walking); type: in vivo, human; details: conclusion from the results of Table 1
Procedure: (§1) Ingredients were mixed at proportions shown in Table 1 below and subjected to tablet molding to produce tableted products in Examples 1 to 3 and Comparative Examples 1 and 2 in the present invention. As the blended ingredients, commercially available products were used. In order to uniform appearance, Blue No. 2 was added to adjust the color. In each of Examples and Comparative Examples, six tableted products were produced such that the daily intake was 1,800 mg.
(§2) Twenty male and female subjects who feel a decline in mobility in their 40s to 70s were divided into five groups of four subjects each. In each group, two tablets in each of Examples 1, 2, and 3 and Comparative Examples 1 and 2 were taken three times a day in the morning, noon, and evening for four weeks. Two weeks and four weeks after the initiation of the test, the following questionnaires were carried out.
An equal-interval scale of 0 to 10 was prepared, and a score of 5 that is the middle means before the initiation of the test or no change, a score closer to 0 means deterioration, and a score closer to 10 means amelioration. The subjects were made to plot the experience evaluation of the joint pain reducing effect in which the subjects felt in walking. Scores plotted by the subjects were considered to be test evaluation.

[2] = system: male and female subjects who feel a decline in mobility; assay: Mobility ameliorating effect questionnaire (0 to 10 scale, ease of walking); type: in vivo, human; details: conclusion from the results of Table 1
Procedure: as §1, §2
An equal-interval scale of 0 to 10 was prepared, and a score of 5 that is the middle means no change, a score closer to 0 means that walking is difficult, and a score closer to 10 means that walking is easy. The subjects were made to plot the experience evaluation. Scores plotted by the subjects were considered to be test evaluation.

phycocyanin
effect on the joint (conclusion in words) [1]: recognized to exert the effect on the joint | mobility ameliorating effect (conclusion in words) [2]: recognized to exert

From patent US20240335490A1, “COMPOSITION FOR PREVENTING OR AMELIORATING LOCOMOTIVE SYNDROME” (DIC Corporation, priority 2021, published 2024)
